PMC10363080, “Modulatory Effect of Pyrus pyrifolia Fruit and its Phenolics on Key Enzymes against Metabolic Syndrome: Bioassay-Guided Approach, HPLC Analysis, and In Silico Study” (Plant Foods for Human Nutrition (Dordrecht, Netherlands), 2023)

Key:
[1] = Ferric reducing antioxidant power (FRAP) assay; design: FRAP AA (%) antioxidant activity percentage: concentration or dose not given beside the values; conditions: for FRAP antioxidant activity: Trolox equivalent per gram of sample, mean ± SD, n=3; for FRAP AA (%) antioxidant activity percentage: compared to ascorbic acid (=100)
Procedure: all of analytical grade. An electrothermal 9100 (UK) was used for the determination of melting points (uncorrected). A Jenway model 6800 spectrophotometer was utilized for recording UV spectra. A Tecan, microplate reader, ((Infinite F50, Switzerland)) was used to measure the absorbances. A Bruker NMR system was used for 1H-NMR (400 MHz) and 13C-NMR (100 MHz).
The NMR spectra were determined in CD3OH and DMSO-d6. Chemical shifts are given in δ (ppm) relative to the internal standard TMS. Phenolic acids and flavonoids used in HPLC analysis as well as all other reagents for biological investigations were obtained from Sigma Chemical Company […]
Determination of the antioxidant activity
2,2`-Azino-bis(3-ethylbenzothiazoline-6-sulfonic acid) (ABTS), ferric reducing antioxidant power (FRAP), and oxygen radical absorbance capacity (ORAC) assays were performed according to the previously published procedures. Ascorbic acid was used as a reference antioxidant […]
drug. […]

[2] = biological target: ACE1 (Homo sapiens, UniProt P12821); assay: Angiotensin conversion enzyme (ACE) inhibitory activity (HHL substrate); format: biochemical; conditions: isolated compounds, Table S7; read-out: Inhibition (IC50) ACE1
Procedure: (§1) Phenolic acids and flavonoids used in HPLC analysis as well as all other reagents for biological investigations were obtained from Sigma Chemical Company […]
(§2) Inhibitory activity against key enzymes related to metabolic syndrome (MS) All assays were performed in 96-well plates. Stock solutions of the extract (100 mg/mL), fractions (100 mg/mL), and isolated compounds (1000 µM) were prepared. Tested samples that exceeded […]
(§3) inhibitory concentration (IC50). The percentage of enzyme inhibition was calculated according to […]
% Inhibition = (A−B) − (C−D) x 100 […]
Pancreatic lipase inhibitory activity […]

[3] = biological target: xanthine oxidase (XO) (Bos taurus, UniProt P80457); assay: Xanthine oxidase (XO) inhibitory activity; format: biochemical; conditions: isolated compounds, Table S7; read-out: Inhibition (IC50) XO
Procedure: all of analytical grade. […]
as §1, §2, §3

Sequence of xanthine oxidase (XO) (P80457 2-1332): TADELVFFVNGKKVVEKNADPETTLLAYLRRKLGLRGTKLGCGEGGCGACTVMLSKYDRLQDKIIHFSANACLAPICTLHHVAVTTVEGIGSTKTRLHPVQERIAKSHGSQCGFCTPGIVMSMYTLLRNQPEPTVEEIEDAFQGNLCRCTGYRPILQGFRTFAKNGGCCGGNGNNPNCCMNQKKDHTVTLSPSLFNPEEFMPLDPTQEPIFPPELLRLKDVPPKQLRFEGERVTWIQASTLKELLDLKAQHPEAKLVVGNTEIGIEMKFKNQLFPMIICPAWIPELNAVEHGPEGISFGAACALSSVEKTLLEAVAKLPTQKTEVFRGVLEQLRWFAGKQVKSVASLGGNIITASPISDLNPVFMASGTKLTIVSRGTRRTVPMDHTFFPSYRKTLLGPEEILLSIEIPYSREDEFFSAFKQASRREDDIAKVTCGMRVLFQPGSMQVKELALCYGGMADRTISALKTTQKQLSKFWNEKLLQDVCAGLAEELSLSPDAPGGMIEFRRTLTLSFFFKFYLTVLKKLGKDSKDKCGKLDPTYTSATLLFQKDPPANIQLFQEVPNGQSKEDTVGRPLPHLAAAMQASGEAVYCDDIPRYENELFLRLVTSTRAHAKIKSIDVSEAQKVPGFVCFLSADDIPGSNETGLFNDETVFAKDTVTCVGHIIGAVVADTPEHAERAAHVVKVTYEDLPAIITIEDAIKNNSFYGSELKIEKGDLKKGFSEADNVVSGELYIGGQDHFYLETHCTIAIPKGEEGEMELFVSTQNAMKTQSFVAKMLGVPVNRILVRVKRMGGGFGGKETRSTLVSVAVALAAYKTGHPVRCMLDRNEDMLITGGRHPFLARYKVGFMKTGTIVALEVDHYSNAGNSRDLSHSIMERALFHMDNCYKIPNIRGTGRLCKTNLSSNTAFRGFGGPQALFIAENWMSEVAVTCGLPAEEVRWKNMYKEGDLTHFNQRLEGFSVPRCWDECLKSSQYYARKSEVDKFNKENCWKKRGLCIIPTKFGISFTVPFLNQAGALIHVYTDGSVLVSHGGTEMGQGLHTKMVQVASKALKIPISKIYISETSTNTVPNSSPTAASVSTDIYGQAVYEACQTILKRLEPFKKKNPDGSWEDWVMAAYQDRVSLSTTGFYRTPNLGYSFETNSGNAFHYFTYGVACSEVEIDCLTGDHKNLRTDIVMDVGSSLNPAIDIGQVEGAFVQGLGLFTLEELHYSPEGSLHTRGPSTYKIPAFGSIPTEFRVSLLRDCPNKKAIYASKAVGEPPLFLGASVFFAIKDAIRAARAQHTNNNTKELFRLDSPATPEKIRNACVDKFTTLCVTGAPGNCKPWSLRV
Sequence of ACE1 (P12821 30-1232): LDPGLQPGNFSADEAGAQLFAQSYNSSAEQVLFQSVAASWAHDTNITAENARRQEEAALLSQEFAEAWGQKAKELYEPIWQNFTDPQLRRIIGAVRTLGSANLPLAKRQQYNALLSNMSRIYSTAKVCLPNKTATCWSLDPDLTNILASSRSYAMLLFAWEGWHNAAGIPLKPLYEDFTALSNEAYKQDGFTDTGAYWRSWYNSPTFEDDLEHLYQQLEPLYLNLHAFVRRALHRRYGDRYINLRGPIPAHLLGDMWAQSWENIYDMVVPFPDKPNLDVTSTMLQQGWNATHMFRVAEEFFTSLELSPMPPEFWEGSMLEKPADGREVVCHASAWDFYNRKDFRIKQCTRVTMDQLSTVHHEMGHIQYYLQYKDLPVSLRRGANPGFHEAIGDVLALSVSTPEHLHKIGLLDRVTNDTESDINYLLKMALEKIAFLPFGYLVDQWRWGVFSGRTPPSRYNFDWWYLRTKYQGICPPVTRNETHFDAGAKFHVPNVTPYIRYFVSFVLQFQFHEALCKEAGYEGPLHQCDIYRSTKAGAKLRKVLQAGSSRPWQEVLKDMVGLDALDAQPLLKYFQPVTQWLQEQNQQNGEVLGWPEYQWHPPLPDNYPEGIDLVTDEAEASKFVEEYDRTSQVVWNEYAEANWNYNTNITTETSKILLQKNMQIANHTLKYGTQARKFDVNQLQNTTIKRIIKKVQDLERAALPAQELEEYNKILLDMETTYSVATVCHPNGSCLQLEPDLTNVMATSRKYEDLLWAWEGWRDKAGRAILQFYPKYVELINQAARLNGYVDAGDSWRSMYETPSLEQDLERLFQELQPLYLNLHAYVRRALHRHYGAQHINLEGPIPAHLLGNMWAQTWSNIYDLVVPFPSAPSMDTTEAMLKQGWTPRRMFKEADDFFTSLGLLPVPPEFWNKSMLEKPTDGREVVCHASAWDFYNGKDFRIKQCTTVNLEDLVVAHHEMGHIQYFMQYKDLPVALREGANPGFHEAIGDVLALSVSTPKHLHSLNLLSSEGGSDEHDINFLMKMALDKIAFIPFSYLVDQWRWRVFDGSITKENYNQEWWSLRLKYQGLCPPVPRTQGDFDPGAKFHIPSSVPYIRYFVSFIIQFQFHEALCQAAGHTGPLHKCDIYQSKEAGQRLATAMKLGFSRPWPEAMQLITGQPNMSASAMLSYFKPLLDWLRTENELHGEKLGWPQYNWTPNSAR

| SMILES | FRAP antioxidant activity [1] | FRAP AA (%) antioxidant activity percentage [1] | IC50 [2] | IC50 [3] | FRAP antioxidant activity ([1]; listed as Cinnamic acid (P6)) |
| --- | --- | --- | --- | --- | --- |
| COc1cc(-c2oc3cc(O)cc(O)c3c(=O)c2O[C@@H]2O[C@H](CO)[C@@H](O)[C@H](O)[C@H]2O)ccc1O [P3, isorhamnetin-3-O-β-D-glucopyranoside] | 125.08±0.72 μM TE/g | 80.58% | 310 ± 860 nM | 3560 ± 830 nM | – |
| C[C@@H]1O[C@@H](OC[C@H]2O[C@@H](Oc3c(-c4ccc(O)c(O)c4)oc4cc(O)cc(O)c4c3=O)[C@H](O)[C@@H](O)[C@@H]2O)[C@H](O)[C@H](O)[C@H]1O [P1, rutin] | 99.28 ±0.98 μM TE/g | 63.96% | – | – | – |
| O=C(O)/C=C/c1ccccc1 [P6, cinnamic acid] | 141.26±0.91 μM TE/g | 91.01% | – | – | 141.26 ± 0.91 μM TE/g |
| O=c1c(O[C@@H]2O[C@H](CO)[C@@H](O)[C@H](O)[C@H]2O)c(-c2ccc(O)c(O)c2)oc2cc(O)cc(O)c12 [P2, isoquercitrin] | 137.27±0.53 μM TE/g | 88.44% | – | – | – |
